Assay results from PubChem BioAssay AID248 (DTP/NCI, 2004).
“And” between values parts separate entries of the source, which are not always exact repeats. Equal entries are not always repeated. Toxic doses and inconclusive results are not listed. No stated cut-off is given here; in the data, active means T/C of 150% or more; inactive means T/C below 125%.

Test system: L1210 leukemia ip in BDF1 mice, survival T/C
Experiment: NCI In Vivo Anticancer Drug Screen. Data for tumor model L1210 Leukemia (intraperitoneal) in B6D2F1 (BDF1) mice
Settings: higher = longer survival
In short: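 Antitumor effect is assessed in tumor-bearing animals. Survival in the compound arm is compared with a vehicle-dosed control arm and expressed as their quotient.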

[1] = endpoint: mean survival time, dose: 100.0 mg/kg/injection, schedule: Q04DX003 (ip), vehicle: Klucel (hydroxypropylcellulose) (HPC)
[2] = endpoint: mean survival time, dose: 200.0 mg/kg/injection, schedule: Q04DX003 (ip), vehicle: Klucel (hydroxypropylcellulose) (HPC)
[3] = endpoint: mean survival time, dose: 400.0 mg/kg/injection, schedule: Q04DX003 (ip), vehicle: Klucel (hydroxypropylcellulose) (HPC)
[4] = endpoint: mean survival time, dose: 100.0 mg/kg/injection, schedule: Q01DX009 (ip), vehicle: Klucel (hydroxypropylcellulose) (HPC)
[5] = endpoint: mean survival time, dose: 100.0 mg/kg/injection, schedule: Q01DX001 (ip), vehicle: carboxymethylcellulose (CMC)
[6] = endpoint: mean survival time, dose: 200.0 mg/kg/injection, schedule: Q01DX001 (ip), vehicle: carboxymethylcellulose (CMC)
[7] = endpoint: mean survival time, dose: 400.0 mg/kg/injection, schedule: Q01DX001 (ip), vehicle: carboxymethylcellulose (CMC)
[8] = endpoint: mean survival time, dose: 100.0 mg/kg/injection, schedule: Q01DX001 (ip), vehicle: other
[9] = endpoint: mean survival time, dose: 200.0 mg/kg/injection, schedule: Q01DX001 (ip), vehicle: other
[10] = endpoint: mean survival time, dose: 400.0 mg/kg/injection, schedule: Q01DX001 (ip), vehicle: other

Measured: T/C

CC1(C)C2CC3C(CCC4C(=O)OC(=O)C43)C1C2 (stereo unspecified)
inactive: endpoint: mean survival time, dose: 100.0 mg/kg/injection, schedule: Q01DX001 (ip), vehicle: Klucel (hydroxypropylcellulose) (HPC) 97 % of control | endpoint: mean survival time, dose: 200.0 mg/kg/injection, schedule: Q01DX001 (ip), vehicle: Klucel (hydroxypropylcellulose) (HPC) 98 % of control | endpoint: mean survival time, dose: 400.0 mg/kg/injection, schedule: Q01DX001 (ip), vehicle: Klucel (hydroxypropylcellulose) (HPC) 103 % of control

O=S(=O)(O)C(O)CC(c1ccccc1)S(=O)(=O)O (stereo unspecified)
inactive: endpoint: mean survival time, dose: 100.0 mg/kg/injection, schedule: Q04DX002 (ip), vehicle: Klucel (hydroxypropylcellulose) (HPC) 106 % of control | endpoint: mean survival time, dose: 400.0 mg/kg/injection, schedule: Q04DX002 (ip), vehicle: Klucel (hydroxypropylcellulose) (HPC) 98 % of control

C[n+]1ccc(/C=C/C(=O)Nc2ccccc2)cc1
inactive: [1] 104 % of control | [2] 108 % of control | [3] 98 % of control

O=C(CI)Nc1ccc(Cl)c(Cl)c1
inactive: endpoint: mean survival time, dose: 25.0 mg/kg/injection, schedule: Q01DX009 (ip), vehicle: Klucel (hydroxypropylcellulose) (HPC) 95 % of control | endpoint: mean survival time, dose: 50.0 mg/kg/injection, schedule: Q01DX009 (ip), vehicle: Klucel (hydroxypropylcellulose) (HPC) 94 % of control | [4] 93 % of control

COc1cc(N=Nc2cccc([N+](=O)[O-])c2)ccc1N(CCCl)CCCl
inactive: endpoint: median survival time, dose: 100.0 mg/kg/injection, schedule: Q01DX009 (ip), vehicle: Klucel (hydroxypropylcellulose) (HPC) 98 % of control | endpoint: median survival time, dose: 200.0 mg/kg/injection, schedule: Q01DX009 (ip), vehicle: Klucel (hydroxypropylcellulose) (HPC) 100 % of control | endpoint: median survival time, dose: 400.0 mg/kg/injection, schedule: Q01DX009 (ip), vehicle: Klucel (hydroxypropylcellulose) (HPC) 104 % of control

CCOC(=O)N1C=Cc2ccccc2C1C#N (stereo unspecified)
inactive: [5] 124 % of control | [6] 98 % of control | [7] 93 % of control

CN(C)c1ccc(C=C(C#N)C#N)cc1
inactive: [4] 100 % of control | [1] 96 % of control and 98 % of control | endpoint: mean survival time, dose: 200.0 mg/kg/injection, schedule: Q01DX009 (ip), vehicle: Klucel (hydroxypropylcellulose) (HPC) 105 % of control | [2] 97 % of control and 102 % of control | endpoint: mean survival time, dose: 400.0 mg/kg/injection, schedule: Q01DX009 (ip), vehicle: Klucel (hydroxypropylcellulose) (HPC) 94 % of control | [3] 93 % of control and 92 % of control

COC(=O)c1ccc(N(C)Cc2cnc3nc(N)nc(SCc4ccccc4)c3n2)cc1
inactive: endpoint: mean survival time, dose: 100.0 mg/kg/injection, schedule: Q01DX001 (ip), vehicle: saline with Tween-80 97 % of control | endpoint: mean survival time, dose: 200.0 mg/kg/injection, schedule: Q01DX001 (ip), vehicle: saline with Tween-80 94 % of control | endpoint: mean survival time, dose: 400.0 mg/kg/injection, schedule: Q01DX001 (ip), vehicle: saline with Tween-80 101 % of control

CC(C)c1ccc(C2(C)CCCCC2=O)cc1 (stereo unspecified)
inactive: [8] 101 % of control | [9] 103 % of control | [10] 93 % of control

Cc1cc(C)c2[nH]c(=O)cc(C)c2c1
inactive: [8] 97 % of control and 98 % of control | [9] 97 % of control and 95 % of control | [10] 108 % of control and 95 % of control

CCOC(=O)C(C)(c1[nH]c2ccccc2c1C)c1[nH]c2ccccc2c1C
inactive: endpoint: mean survival time, dose: 50.0 mg/kg/injection, schedule: Q01DX001 (ip), vehicle: saline 103 % of control | endpoint: mean survival time, dose: 100.0 mg/kg/injection, schedule: Q01DX001 (ip), vehicle: saline 103 % of control | endpoint: mean survival time, dose: 200.0 mg/kg/injection, schedule: Q01DX001 (ip), vehicle: saline 95 % of control | endpoint: mean survival time, dose: 400.0 mg/kg/injection, schedule: Q01DX001 (ip), vehicle: saline 89 % of control

NNC(=O)c1ccc(N)cc1
inactive: endpoint: mean survival time, dose: 50.0 mg/kg/injection, schedule: Q01DX001 (ip), vehicle: carboxymethylcellulose (CMC) 95 % of control | endpoint: mean survival time, dose: 50.0 mg/kg/injection, schedule: Q01DX009 (ip), vehicle: saline with Tween-80 93 % of control | [5] 86 % of control | endpoint: mean survival time, dose: 100.0 mg/kg/injection, schedule: Q01DX009 (ip), vehicle: saline with Tween-80 104 % of control | [6] 95 % of control | endpoint: mean survival time, dose: 200.0 mg/kg/injection, schedule: Q01DX009 (ip), vehicle: saline with Tween-80 100 % of control | [7] 103 % of control

C=CC(C)(C)CCCC
inactive: endpoint: mean survival time, dose: 100.0 mg/kg/injection, schedule: Q04DX003 (ip), vehicle: saline 104 % of control | endpoint: mean survival time, dose: 200.0 mg/kg/injection, schedule: Q04DX003 (ip), vehicle: saline 101 % of control | endpoint: mean survival time, dose: 400.0 mg/kg/injection, schedule: Q04DX003 (ip), vehicle: saline 110 % of control
